According to patent publication US6432446B1, “Non-arrhythmogenic metabolite of oxybutynin” (Bridge Pharma, Inc., priority 2000, dated 2002):
Each block holds one compound with its values, some of them ahead of it.

How the values were obtained:
[1] = drugs withdrawn from the market because of this side effect; cited from earlier work
Male guinea pigs = test: Cardiac side effects: QTc interval of the EKG in anesthetized guinea pigs; type: in vivo, guinea pig; conditions: intravenous infusion over 30 min
Procedure: Male guinea pigs (450-600 g) are anesthetized with freshly prepared dialurethane sodium. The jugular vein is catheterized for iv administration of test drugs and the trachea is exposed and cannulated. Subdermal electrodes are positioned for Lead II electrocardiogram recording, monitored on a Grass Polygraph recorder, set at a paper speed of 50 nmmsec. The animals are allowed to stabilize for 30 minute after completion of surgery, and three baseline EKG recordings are then made at 10-minute intervals. The animals are then given a dose of the test compound or vehicle as an intravenous inflision over 30 min. EKG recordings are used to determine QT intervals and heart rates. To compensate for variations in heart rates, QTc intervals are calculated from QT- and RR-intervals as known to those skilled in the art. Prolongation of QTc is indicative of a prolonged action potential, caused by an inhibition of the delayed rectifier potassium channel. Prolongation of QTc is the known cause of Torsades de Pointes ventricular fibrillation by drugs such as terfenadine and astemizole (now withdrawn from the market).

[2] = isomers of racemic oxybutynin; cited from earlier work
[3] = system: human recombinant muscarinic receptor subtypes; test: Ligand binding studies: muscarinic receptors; conditions: compared with the des-ethyl metabolite
Procedure: 1. Ligand Binding Studies: Muscarinic Receptors.
The experiments are carried out on membranes prepared from SF9 cells infected with baculovirus to express human recombinant muscarinic receptor subtypes. After incubation with the test article and the proper radioligand and washing, bound radioactivity is determnined with a liquid scintillation counter, using a commercial scintillation cocktail. The specific radioligand binding to each receptor is defined as the difference between total binding and nonspecific binding determined in the presence of an excess of unlabelled ligand. IC50 values (concentrations required to inhibit 50% of specific binding) are determined by non linear regression analysis of the competition curves. These parameters are obtained by curve fitting using Sigmaplot software.

[4] = system: benzothiazepine receptors; test: Affinity for benzothiazepine receptors; type: binding; conditions: compared with the des-ethyl metabolite
[5] = system: Strips of intestinal smooth muscle tissue
Procedure: 2. Functional Characterization of Antimuscarinic/Antispasmodic Activity.
Strips of intestinal smooth muscle tissue are removed from the body of male Hartley guinea pigs weighing 400-600 g. The strips are suspended in an oxygenated buffer of the following composition, in mM: NaCl, 133; KCl, 4.7; CaCl2, 2.5; MgSO4, 0.6; NaH2PO4, 1.3; NaHCO3, 16.3; and glucose, 7.7, or a similar balanced physiological solution. They are maintained at constant temperature. Contractions are recorded with isometric transducers (Model FT-10) on an ink-writing polygraph.
In each experiment up to seven strips are removed from a single animal, suspended in individual tissue chambers and allowed to equilibrate with the bathing solution for one hour before proceeding with the experiment.
In order to assess the viability of each tissue and to serve as a frame of reference, contractions of each strip of tissue are recorded initially in response to exposure to a tissue medium in which the NaCl was replaced by KCl to yield a concentration of 137.7 mM KCl in the medium. […] Then, leaving one strip untreated and/or one strip exposed to the test solution to serve as control tissue(s), the remaining strips each are exposed for one hour to one concentration of an antagonist. Finally, the responses to increasing concentrations of carbachol followed by exposure to 137.7 mM KCl are recorded a second time. To determine whether antagonists decrease the peak response to agonists, the peak tension developed by each strip during the second set of determinations is expressed as a percent of the peak tension developed during the first concentration-effect determination. Then, for each antagonist the resultant data are analyzed using standard statistical methodology.

[6] = Risk for torsades des pointes of drugs combined with oxybutynin
[7] = system: patients with conditions characterized by involuntary bladder contractions; conditions: clinical studies; cited from earlier work

Compound: COc1ccc(CCN2CCC(Nc3nc4ccccc4n3Cc3ccc(F)cc3)CC2)cc1 [astemizole]
- prolongation of QTc [1]: found to cause prolongation of QTc

Compound: CCN(CC)CC#CCOC(=O)[C@](O)(c1ccccc1)C1CCCCC1 (single isomer, unassigned) [R(−)-isomer, R(−)-oxybutynin]
- prolongation of the QTc-interval of the EKG (Male guinea pigs): cause a prolongation of the QTc-interval
- anticholinergic activity [2]: practically all of the anticholinergic activity of OXY resides in the R(−)-isomer

- affinity for muscarinic receptors [3]: somewhat lower affinity
- affinity for benzothiazepine receptors [4]: somewhat lower affinity
Compound: didesethyloxybutynin [didesethyl metabolite]
- prolongation of the QTc-interval of the EKG (Male guinea pigs): does not prolong the QTc interval

Compound: CCNCC#CCOC(=O)[C@](O)(c1ccccc1)C1CCCCC1 (single isomer, unassigned) [R-isomer of the des-ethyl metabolite of oxybutynin]
- antimuscarinic / anticholinergic activity [5]: potent antimuscarinic agent

Compound: CCNCC#CCOC(=O)[C@@](O)(c1ccccc1)C1CCCCC1 (single isomer, unassigned) [S-isomer of the des-ethyl metabolite of oxybutynin]
- antimuscarinic / anticholinergic activity [5]: weak anticholinergic activity
- spasmolytic activity [5]: spasmolytic agent

Compound: CCN(CC)CC#CCOC(=O)[C@@](O)(c1ccccc1)C1CCCCC1 (single isomer, unassigned) [S(+)-isomer, S(+)-oxybutynin]
- prolongation of the QTc-interval of the EKG (Male guinea pigs): cause a prolongation of the QTc-interval
- spasmolytic activity [2]: direct spasmolytic activity

Compound: CC(CC(c1ccccc1)c1ccccc1)NC(C)(C)C (stereo not drawn) [terodiline]
- prolongation of QTc [1]: found to cause prolongation of QTc

Compound: CC(=O)N1CCN(c2ccc(OCC3COC(Cn4ccnc4)(c4ccc(Cl)cc4Cl)O3)cc2)CC1 (stereo not drawn) [ketoconazole]
- risk for torsades des pointes [6]: further increase the risk for torsades des pointes

Compound: CCN(CC)CC#CCOC(=O)C(O)(c1ccccc1)C1CCCCC1 (racemic) [oxybutynin, 4-diethylamino-2-butynyl cyclohexylphenylglycolate]
- prolongation of the QTc-interval of the EKG (Male guinea pigs): causes a prolongation of the QTc-interval
- bladder capacity [7]: increases bladder capacity
- frequency of involuntary contractions of the detrusor muscle [7]: diminishes the frequency of involuntary contractions of the detrusor muscle
- initial desire to void [7]: delays the initial desire to void

Compound: CCNCC#CCOC(=O)C(O)(c1ccccc1)C1CCCCC1 (racemic) [desethyl metabolite of oxybutynin, 4-ethylamino-2-butynyl cyclohexyl-phenylglycolate]
- prolongation of the QTc-interval of the EKG (Male guinea pigs): free from said cardiac side effect
